Experimental data published in US6821985B2, “Pharmaceutical combinations for the treatment of stroke and traumatic brain injury” (Pfizer, Inc., priority 2000, dated 2004).

Legend:
[1] = molecular target: T1, NR2B subunit containing NMDA receptor (Rattus norvegicus, UniProt P35439+Q00960); assay: Displacement of specific binding of racemic [3H](+)-(1S,2S)-1-(4-hydroxy-phenyl)-2-(4-hydroxy-4-phenylpiperidino)-1-propanol ([3H]CP-101,606) from rat forebrain membranes; conditions: ratio of the IC50s; greater than three is considered selective for NR2B over α1
T1 construct: (+)-(1S, 2S)-1-(4-hydroxy-phenyl)-2-(4-hydroxy-4-phenylpiperidino)-1-propanol from rat forebrain membranes; from tissue; host or cells: forebrain membranes of adult male CD rats
Method: This affinity is assessed in a radioligand binding assay as described later in this application.
This affinity is assessed in a radioligand binding assay as described below.
The binding of racemic [^3H] […] Forebrains of adult male CD rats are homogenized in 0.32M sucrose at 4° C. The crude nuclear pellet is removed by centrifugation at 1,000×g for 10 minutes, and the supernatant centrifuged at 17,000×g for 25 minutes. The resulting pellet is resuspended in 5 mM Tris acetate pH 7.4 at 4° C. for 10 minutes to lyse cellular particles and again centrifuged at 17,000×g. The resulting pellet is washed twice in Tris acetate, resuspended at 10 mg protein/ml and stored at −20° C. until use.
For binding assays, membranes are thawed, homogenized, and diluted to 0.5 mg protein/ml with 50 mM Tris HCl, pH 7.4. Compounds under study are added at various concentrations followed by racemic [^3H] […] Following incubation for 20 min at 30° C. in a shaking water bath, samples are filtered onto Whatman GFB glass fiber filters using a MB-48R Cell Harvester (Brandel Research and Development Laboratories, Gaithersburg Md.). Filters are washed for 10 s with ice cold Tris HCl buffer and the radioactivity trapped on the filter quantified by liquid scintillation spectroscopy. Nonspecific binding is determined in parallel incubations containing 100 μM racemic (+)-(1 S, 2S)-1-(4-hydroxy-phenyl)-2-(4-hydroxy-4-phenylpiperidino)-1-propanol. Specific binding is defined as total binding minus nonspecific binding.
Affinity for the NR^2B subunit containing NMDA receptor is measured as the IC50 for displacement of specific binding of racemic [^3H] […] Affinity for the α1-adrengergic receptor is defined as the IC50 for displacement of specific binding of racemic [^3H]prazosin from rat brain membranes, measured as described by Greengrass and Bremner (Binding Characteristics of [3H]prazosin to Rat Brain α-Adrenergic Receptors, European Journal of Pharmacology, 55, 323-326, (1979)).

α1-adrenergic receptor = assay: Displacement of specific binding of [3H]prazosin from rat forebrain membranes; conditions: IC50 for displacement of specific binding, 0.2 nM radioligand
Method: Compounds of the formula I have selectivity for NR^2B subunit-containing NMDA receptors over α1-adrengergic receptors. Affinity for the NR^2B subunit containing NMDA receptor is measured as the IC50 for displacement of specific binding of racemic [^3H] (+)-(1S, 2S)-1-(4-hydroxy-phenyl)-2-(4-hydroxy-4-phenylpiperidino)-1-propanol from rat forebrain membranes (described above). Affinity for the α1-adrengergic receptor is defined as the IC50 for displacement of specific binding of racemic [^3H]prazosin from rat brain membranes, measured as described by Greengrass and Bremner (Binding Characteristics of [3H]prazosin to Rat Brain α-Adrenergic Receptors, European Journal of Pharmacology, 55, 323-326, (1979)).
Forebrains of adult male Sprague Dawley rats are homogenized in 20 volumes of ice cold 50 mM Tris/HCl buffer (pH 7.7). The homogenate is centrifuged at 50,000×g for 10 minutes at 4° C. The pellet is resuspended and centrifuged under identical conditions and the final pellet is resuspended in 80 volumes of 50 mM Tris/HCl (pH 8.0) at 4° C.
For binding assays, compounds under study are added at various concentrations to 500 μg membrane protein in 1 ml of 50 mM Tris/HCl buffer, followed by [^3H]prazosin (Amersham, specific activity 33 Ci/mmol, 0.2 nM final concentration). Following incubation for 30 min at 25° C. in a shaking water bath, samples are filtered onto Whatman GFB glass fiber filters using a MB-48R Cell Harvester (Brandel Research and Development Laboratories, Gaithersburg Md.). Filters are washed three times for 10 s with ice cold Tris HCl buffer and the radioactivity trapped on the filter quantified by liquid scintillation spectroscopy. Nonspecific binding is determined in parallel incubations containing 100 nM prazosin. Specific binding is defined as total binding minus nonspecific binding.

T1 sequence (Q00960 27-1482, other chains not shown): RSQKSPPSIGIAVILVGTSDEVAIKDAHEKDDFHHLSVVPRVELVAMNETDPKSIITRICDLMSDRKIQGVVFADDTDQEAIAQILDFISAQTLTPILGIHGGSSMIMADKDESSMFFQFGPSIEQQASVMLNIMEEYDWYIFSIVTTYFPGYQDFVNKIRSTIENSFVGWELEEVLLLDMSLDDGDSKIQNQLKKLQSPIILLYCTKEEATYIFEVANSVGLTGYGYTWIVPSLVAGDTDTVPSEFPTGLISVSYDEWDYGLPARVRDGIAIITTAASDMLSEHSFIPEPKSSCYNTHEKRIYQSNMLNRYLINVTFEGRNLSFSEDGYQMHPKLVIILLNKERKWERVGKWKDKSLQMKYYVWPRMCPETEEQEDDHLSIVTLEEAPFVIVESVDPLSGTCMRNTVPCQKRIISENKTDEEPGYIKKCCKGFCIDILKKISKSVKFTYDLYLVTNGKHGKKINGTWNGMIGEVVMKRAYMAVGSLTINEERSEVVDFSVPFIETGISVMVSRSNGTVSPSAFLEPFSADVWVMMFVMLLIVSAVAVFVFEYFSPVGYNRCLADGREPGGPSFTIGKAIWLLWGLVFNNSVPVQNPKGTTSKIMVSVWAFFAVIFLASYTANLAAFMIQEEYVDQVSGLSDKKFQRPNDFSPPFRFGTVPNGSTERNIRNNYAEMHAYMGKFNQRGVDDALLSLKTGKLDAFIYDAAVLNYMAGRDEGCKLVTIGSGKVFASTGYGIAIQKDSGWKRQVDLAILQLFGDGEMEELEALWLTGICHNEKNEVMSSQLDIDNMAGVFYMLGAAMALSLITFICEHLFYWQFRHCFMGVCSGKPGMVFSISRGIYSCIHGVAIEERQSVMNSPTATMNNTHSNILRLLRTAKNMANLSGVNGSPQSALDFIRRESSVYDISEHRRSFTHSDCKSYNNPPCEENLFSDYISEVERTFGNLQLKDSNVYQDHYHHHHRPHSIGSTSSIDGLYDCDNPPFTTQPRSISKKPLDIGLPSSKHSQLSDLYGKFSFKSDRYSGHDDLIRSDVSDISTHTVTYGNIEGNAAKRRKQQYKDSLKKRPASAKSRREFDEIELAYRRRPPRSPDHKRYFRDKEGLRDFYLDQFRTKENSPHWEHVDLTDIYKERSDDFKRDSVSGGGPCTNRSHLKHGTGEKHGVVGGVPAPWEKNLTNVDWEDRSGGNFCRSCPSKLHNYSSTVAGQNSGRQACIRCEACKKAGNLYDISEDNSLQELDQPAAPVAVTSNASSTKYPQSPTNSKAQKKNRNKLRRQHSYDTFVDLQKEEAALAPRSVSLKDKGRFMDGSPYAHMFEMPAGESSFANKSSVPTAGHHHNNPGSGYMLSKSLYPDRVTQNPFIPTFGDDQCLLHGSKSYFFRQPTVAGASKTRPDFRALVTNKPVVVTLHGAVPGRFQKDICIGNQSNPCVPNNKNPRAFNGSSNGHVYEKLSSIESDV

melting point [°C] | SMILES | Ratio [^3H]Prazosin/[^3H] (+)-(1S, 2S)-1-(4-hydroxy-phenyl)-2-(4-hydroxy-4-phenylpiperidino)-1-propanol [1] | IC50 (α1-adrenergic receptor) [µM]
 | COc1cc([C@H](O)[C@H](C)N2CCC(O)(c3ccccc3)CC2)ccc1O [(1S, 2S)-1-(4-hydroxy-3-methoxyphenyl)-2-(4-hydroxy-4-phenylpiperidino)-1-propanol] | 86 | 8.1
159 to 160 | Oc1ccc2c(c1)OCC(N1CCC(O)(c3ccc(F)cc3)CC1)[C@H]2O (stereo in doubt) |  | 
 | Oc1ccc2c(c1)OC[C@@H](N1CCC(O)(c3ccc(F)cc3)CC1)[C@H]2O [(3R, 4S)-3-(4-(4-fluorophenyl)-4-hydroxypiperidin-1-yl)-chroman-4,7-diol] | ≧555 | > 10
 | OC(CN1CCC(Cc2ccc(F)cc2)CC1)c1ccc(Cl)cc1 (centres unmarked) [Eliprodil, reference compound] | 2.2 | 0.98 ± 0.22
 | C[C@@H]([C@@H](O)c1ccc(O)cc1)N1CCC(O)(c2ccccc2)CC1 [(+)-(1S, 2S)-1-(4-hydroxy-phenyl)-2-(4-hydroxy-4-phenylpiperidino)-1-propanol] |  | 19.5
